Results taken from ChEMBL document CHEMBL1136617, “Cyclic amidines as benzamide bioisosteres: EPC synthesis and SAR studies leading to the selective dopamine D4 receptor agonist FAUC 312” (Bioorg Med Chem Lett, 2003).

Columns and labels:
[1] = target: T1, D(4) dopamine receptor (Homo sapiens, UniProt P21917); test: In vitro binding affinity to displace [3H]-spiperone from the cloned human dopamine receptor D4 in CHO cells; format: cell-based
T1 sequence (P21917 whole entry): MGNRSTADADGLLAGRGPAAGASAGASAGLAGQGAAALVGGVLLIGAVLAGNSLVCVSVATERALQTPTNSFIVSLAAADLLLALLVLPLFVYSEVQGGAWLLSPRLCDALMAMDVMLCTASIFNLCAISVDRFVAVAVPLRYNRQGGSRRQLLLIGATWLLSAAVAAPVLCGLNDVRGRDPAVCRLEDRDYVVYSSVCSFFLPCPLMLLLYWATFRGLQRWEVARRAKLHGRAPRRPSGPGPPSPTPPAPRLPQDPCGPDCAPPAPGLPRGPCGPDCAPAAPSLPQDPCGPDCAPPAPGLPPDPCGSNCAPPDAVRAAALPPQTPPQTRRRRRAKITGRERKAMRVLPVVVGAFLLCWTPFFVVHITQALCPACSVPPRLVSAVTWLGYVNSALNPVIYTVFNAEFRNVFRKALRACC

[2] = target: D(1A) dopamine receptor (Bos taurus, UniProt Q95136); test: In vitro Binding affinity towards dopamine D1 receptor using bovine striatal membrane preparations and antagonist [3H]-SCH- 23390; set-up: species or system Striatum
D(1A) dopamine receptor, sequence (Q95136 whole entry): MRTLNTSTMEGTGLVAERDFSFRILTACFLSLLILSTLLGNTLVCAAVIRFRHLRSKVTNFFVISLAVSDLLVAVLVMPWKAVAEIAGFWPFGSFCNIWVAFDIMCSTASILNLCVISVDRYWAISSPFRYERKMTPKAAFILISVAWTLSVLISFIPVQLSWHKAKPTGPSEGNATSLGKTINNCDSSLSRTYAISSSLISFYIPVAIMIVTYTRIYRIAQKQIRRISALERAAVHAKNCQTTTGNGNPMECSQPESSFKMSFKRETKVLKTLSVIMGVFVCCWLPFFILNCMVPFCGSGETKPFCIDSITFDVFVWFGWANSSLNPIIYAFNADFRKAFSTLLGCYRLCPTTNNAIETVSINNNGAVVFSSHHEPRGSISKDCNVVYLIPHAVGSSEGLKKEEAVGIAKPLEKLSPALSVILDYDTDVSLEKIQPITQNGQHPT

[3] = target: T2, D(2) dopamine receptor (Homo sapiens, UniProt P14416); test: In vitro binding affinity to displace [3H]spiperone from the cloned human dopamine receptor D2 long in CHO cells; format: cell-based
T2 sequence (P14416 whole entry): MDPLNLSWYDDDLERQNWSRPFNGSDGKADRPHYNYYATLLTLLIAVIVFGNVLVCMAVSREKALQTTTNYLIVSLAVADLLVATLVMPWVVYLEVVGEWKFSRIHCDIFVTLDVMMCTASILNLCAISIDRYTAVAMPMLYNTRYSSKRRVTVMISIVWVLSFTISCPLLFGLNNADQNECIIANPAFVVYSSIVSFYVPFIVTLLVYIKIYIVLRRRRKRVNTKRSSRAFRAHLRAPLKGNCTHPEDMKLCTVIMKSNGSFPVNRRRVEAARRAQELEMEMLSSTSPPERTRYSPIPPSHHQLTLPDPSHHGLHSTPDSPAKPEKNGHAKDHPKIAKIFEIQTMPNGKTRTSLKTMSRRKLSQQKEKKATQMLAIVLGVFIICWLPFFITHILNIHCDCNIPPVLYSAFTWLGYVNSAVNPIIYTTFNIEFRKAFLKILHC

[4] = target: T3, D(3) dopamine receptor (Homo sapiens, UniProt P35462); test: In vitro binding affinity to displace [3H]spiperone from the cloned human dopamine receptor D3 in CHO cells; format: cell-based
T3 sequence (P35462 whole entry): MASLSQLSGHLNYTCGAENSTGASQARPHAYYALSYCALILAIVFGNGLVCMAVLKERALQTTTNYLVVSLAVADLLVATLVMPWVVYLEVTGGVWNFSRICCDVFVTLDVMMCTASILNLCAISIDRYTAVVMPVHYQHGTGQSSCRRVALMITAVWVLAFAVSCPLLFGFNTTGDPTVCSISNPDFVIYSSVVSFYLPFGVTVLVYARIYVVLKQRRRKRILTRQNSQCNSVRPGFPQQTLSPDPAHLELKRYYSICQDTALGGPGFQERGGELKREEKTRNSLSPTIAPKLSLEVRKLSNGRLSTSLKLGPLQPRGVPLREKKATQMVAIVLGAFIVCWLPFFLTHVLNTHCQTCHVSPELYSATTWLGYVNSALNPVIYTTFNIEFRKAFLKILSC

[5] = target: T2, D(2) dopamine receptor; test: In vitro binding affinity to displace [3H]spiperone from the cloned human dopamine receptor D2 short in CHO cells; format: cell-based
[6] = target: T4, D(4) dopamine receptor (Homo sapiens) (UniProt P21917); test: In vitro functional assay measuring the [3H]thymidine uptake in growing CHO cells stably expressing the dopamine D4.2 receptor was performed; format: cell-based
T4 sequence (whole entry): T1 sequence (P21917 whole entry)

[7] = target: T3, D(3) dopamine receptor; test: biochemical
[8] = target: T2, D(2) dopamine receptor; test: biochemical; format: cell-based, CHO
Description: In vitro binding affinity to displace [3H]-spiperone from the cloned human dopamine receptor D2 short in CHO cells

[9] = target: T1, D(4) dopamine receptor; test: biochemical; format: cell-based, CHO
Description: In vitro binding affinity to displace [3H]spiperone from the cloned human dopamine receptor D4 in CHO cells

[10] = target: T2, D(2) dopamine receptor; test: biochemical; format: cell-based, CHO; remark: listed apart in the source
[11] = target: T2, D(2) dopamine receptor; test: In vitro ability to displace [3H]spiperone from the cloned human dopamine D2 long receptor expressed in CHO cells; format: cell-based
[12] = target: T2, D(2) dopamine receptor; test: In vitro ability to displace [3H]spiperone from the cloned human dopamine D2 short receptor expressed in CHO cells; format: cell-based
[13] = target: T3, D(3) dopamine receptor; test: In vitro ability to displace [3H]spiperone from cloned human dopamine D3 receptor expressed in CHO cells; format: cell-based
[14] = target: T1, D(4) dopamine receptor; test: In vitro ability to displace [3H]spiperone from the cloned human dopamine D4 receptor expressed in CHO cells; format: cell-based
[15] = target: T1, D(4) dopamine receptor; test: Effective concentration for [3H]thymidine uptake in growing CHO cells stably expressing the dopamine D4.2 receptor; format: cell-based

| SMILES | Ki [2] | Ki [7] | Ki [8] | Ki [9] | Ki [10] | other results |
| --- | --- | --- | --- | --- | --- | --- |
| c1ccc(C2=NCC[C@@H](CN3CCN(c4ccccc4)CC3)N2)cc1 | 39 µM |  |  |  |  | Ki [1]: 0.31 µM; Ki [3]: 29 µM; Ki [4]: 13 µM; Ki [5]: 30 µM |
| c1ccc(C2=NCC[C@H](CN3CCN(c4ccccc4)CC3)N2)cc1 |  |  |  |  |  | Stimulation [6]: 83% |
| c1ccc(C2=NCC(N3CCN(c4ccccc4)CC3)CCN2)cc1 (single isomer, unassigned) | 23 µM | 3.3 µM | 14 µM | 4.4 µM | 19 µM |  |
| c1ccc(C2=NC[C@H](N3CCN(c4ccccc4)CC3)CCN2)cc1 | 23 µM | 12 µM | 4.2 µM | 0.12 µM | 10 µM |  |
| c1ccc(C2=N[C@@H](CN3CCN(c4ccccc4)CC3)CCN2)cc1 | 29 µM |  |  |  |  | Ki [11]: 25 µM; Ki [12]: 32 µM; Ki [13]: 13 µM; Ki [14]: 0.0015 µM; EC50 [15]: 0.05 µM |

More lines, main results first:

| Ki [2] | Ki [7] | Ki [8] | Ki [9] | Ki [10] | SMILES | other results |
| --- | --- | --- | --- | --- | --- | --- |
| 9.1 µM | 1.9 µM | 14 µM | 3.5 µM | 16 µM | COc1ccc(Br)cc1C1=NCC[C@@H](CN2CCN(c3ccccc3)CC2)N1 |  |
| 19 µM | 12 µM | 2.8 µM | 0.46 µM | 7.3 µM | O=C1C[C@H](CN2CCN(c3ccccc3)CC2)N=C(c2ccccc2)N1 |  |
| 15 µM | 7.4 µM | 43 µM | 1.6 µM | 44 µM | COc1ccc(Br)cc1C1=NCC[C@H](CN2CCN(c3ccccc3)CC2)N1 |  |
| 8.9 µM | 20 µM | 6.4 µM | 3.7 µM | 18 µM | O=C1C[C@@H](CN2CCN(c3ccccc3)CC2)N=C(c2ccccc2)N1 |  |
